Consider 42 compounds from ChEMBL document CHEMBL6103639, “Structure-Based Development of 3,4-Fused Tricyclic Benzofuran Derivatives as Polyketide Synthase 13 Inhibitors with Negligible hERG Inhibition” (J Med Chem, 2025).

A value given as a limit tells only on which side of the number the result lay.

Data set [1] relates to Mycobacterium tuberculosis. The data set can be described thus: Antitubercular activity against Mycobacterium tuberculosis H37Rv assessed as reduction in microbial growth by microplate alamar blue assay. Format: functional.
Data set [2] deals with Mycobacterium tuberculosis. The data set can be described thus: Antitubercular activity against Mycobacterium tuberculosis H37Rv assessed as reduction in microbial growth incubated for 6 days by microplate alamar blue assay. Format: functional. The settings on record: 144 h, time 6 day. Background: Alamar Blue is a resazurin reagent that responds to reducing activity.
In data set [3] the target is Polyketide synthase Pks13 (Mycobacterium tuberculosis (strain ATCC 25618 / H37Rv)) (UniProt I6X8D2). As to the kind of experiment: Induction of stabilization of Mycobacterium tuberculosis H37Rv Pks-13 TE domain assessed as melting temperature incubated for 30 mins by NanoDSF assay. (Differential scanning fluorimetry follows unfolding on heating by fluorescence.)
Chain of Polyketide synthase Pks13 (Mycobacterium tuberculosis (strain ATCC 25618 / H37Rv)) (I6X8D2 whole entry, the tested form may be a part): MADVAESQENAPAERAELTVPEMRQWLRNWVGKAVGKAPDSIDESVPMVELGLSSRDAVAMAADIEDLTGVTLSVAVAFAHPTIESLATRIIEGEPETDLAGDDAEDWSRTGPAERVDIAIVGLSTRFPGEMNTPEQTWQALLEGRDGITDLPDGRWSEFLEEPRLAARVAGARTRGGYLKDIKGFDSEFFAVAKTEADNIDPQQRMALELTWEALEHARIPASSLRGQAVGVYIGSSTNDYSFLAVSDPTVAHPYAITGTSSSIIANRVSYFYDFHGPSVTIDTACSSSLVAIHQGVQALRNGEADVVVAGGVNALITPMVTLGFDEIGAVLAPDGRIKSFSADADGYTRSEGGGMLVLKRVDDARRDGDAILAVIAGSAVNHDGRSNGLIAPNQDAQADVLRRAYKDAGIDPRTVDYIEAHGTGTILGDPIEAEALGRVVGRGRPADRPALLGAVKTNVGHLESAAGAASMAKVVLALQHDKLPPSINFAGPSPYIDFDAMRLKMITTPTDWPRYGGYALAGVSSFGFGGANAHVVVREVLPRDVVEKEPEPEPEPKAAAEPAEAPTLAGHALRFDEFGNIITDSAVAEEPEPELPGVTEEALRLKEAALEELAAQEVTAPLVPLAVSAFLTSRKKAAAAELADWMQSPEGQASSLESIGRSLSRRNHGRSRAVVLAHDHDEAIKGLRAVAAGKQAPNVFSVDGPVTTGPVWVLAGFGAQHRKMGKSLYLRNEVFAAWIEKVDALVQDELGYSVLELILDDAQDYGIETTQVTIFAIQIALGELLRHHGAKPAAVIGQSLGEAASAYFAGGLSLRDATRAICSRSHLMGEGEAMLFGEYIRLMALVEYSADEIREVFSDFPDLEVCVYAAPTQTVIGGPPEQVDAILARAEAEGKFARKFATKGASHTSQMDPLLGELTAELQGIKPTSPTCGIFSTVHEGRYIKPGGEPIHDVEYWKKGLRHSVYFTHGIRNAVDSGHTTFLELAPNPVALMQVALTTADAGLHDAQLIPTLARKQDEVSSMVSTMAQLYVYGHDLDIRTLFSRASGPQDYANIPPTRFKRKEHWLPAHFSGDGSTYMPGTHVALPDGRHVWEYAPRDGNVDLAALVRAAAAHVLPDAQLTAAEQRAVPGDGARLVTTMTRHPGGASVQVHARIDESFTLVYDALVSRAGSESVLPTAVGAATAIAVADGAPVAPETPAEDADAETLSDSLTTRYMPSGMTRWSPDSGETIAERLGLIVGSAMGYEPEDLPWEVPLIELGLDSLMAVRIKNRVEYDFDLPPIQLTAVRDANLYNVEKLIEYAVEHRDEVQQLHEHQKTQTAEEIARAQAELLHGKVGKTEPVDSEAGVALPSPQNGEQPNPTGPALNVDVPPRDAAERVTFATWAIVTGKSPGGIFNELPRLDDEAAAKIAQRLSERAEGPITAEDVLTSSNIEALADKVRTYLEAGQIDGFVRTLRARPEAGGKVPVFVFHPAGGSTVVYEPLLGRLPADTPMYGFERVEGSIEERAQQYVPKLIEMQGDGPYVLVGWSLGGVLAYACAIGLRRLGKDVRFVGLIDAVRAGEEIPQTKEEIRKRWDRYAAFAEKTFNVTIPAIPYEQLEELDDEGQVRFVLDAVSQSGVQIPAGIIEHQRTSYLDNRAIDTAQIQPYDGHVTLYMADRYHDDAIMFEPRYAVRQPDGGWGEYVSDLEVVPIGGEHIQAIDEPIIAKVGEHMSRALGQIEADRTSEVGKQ
The target is the same in data set [4]. The data set can be described thus: Induction of stabilization of Mycobacterium tuberculosis H37Rv Pks-13 TE domain assessed as change in melting temperature incubated for 30 mins by NanoDSF assay.
A short description of data set [5]: Metabolic stability in human liver microsomes assessed as half life at 0.1 uM measured upto 60 mins by LC/MS-MS analysis. Format: ADME, Microsome. For orientation: Liver microsomes are vesicles of endoplasmic reticulum, rich in cytochrome P450 enzymes.
Data set [6] in a line: Metabolic stability in human liver microsomes assessed as intrinsic clearance at 0.1 uM measured upto 60 mins by LC/MS-MS analysis. Format: ADME, Microsome. The settings on record: read-out: CLH.
Data set [7] in a line: Metabolic stability in human liver microsomes assessed as parent compound remaining at 0.1 uM incubated for 60 mins by LC/MS-MS analysis. Format: ADME, Microsome. The settings on record: read-out: Stability.
Data set [8] deals with Polyketide synthase Pks13 (Mycobacterium tuberculosis (strain ATCC 25618 / H37Rv), UniProt I6X8D2). As to the kind of experiment: Inhibition of Mycobacterium tuberculosis H37Rv Pks-13 TE domain using 4-MUH as fluorogenic substrate incubated for 90 mins by fluorescence based analysis.
Chain of Polyketide synthase Pks13 (I6X8D2 whole entry, the tested form may be a part): as above
Data set [9] has as its target Voltage-gated inwardly rectifying potassium channel KCNH2 (Homo sapiens, UniProt Q12809). The data set can be described thus: Inhibition of human ERG expressed in CHO cells incubated for 2.5 mins by Q-patch-clamp electrophysiological analysis. Format: toxicity, cell-based.

The term MIC denotes the least concentration at which growth counts as inhibited. The term Tm denotes the temperature at which the thermal transition is half complete. As usually defined, the ΔTm is the change in melting temperature against a reference sample. The half-life is the time needed for the level to fall by half in the phase considered. Usually IC50 stands for the concentration needed to halve the response being measured. Read a low IC50 as inhibition by little substance.

Chain of Voltage-gated inwardly rectifying potassium channel KCNH2 (Q12809 whole entry): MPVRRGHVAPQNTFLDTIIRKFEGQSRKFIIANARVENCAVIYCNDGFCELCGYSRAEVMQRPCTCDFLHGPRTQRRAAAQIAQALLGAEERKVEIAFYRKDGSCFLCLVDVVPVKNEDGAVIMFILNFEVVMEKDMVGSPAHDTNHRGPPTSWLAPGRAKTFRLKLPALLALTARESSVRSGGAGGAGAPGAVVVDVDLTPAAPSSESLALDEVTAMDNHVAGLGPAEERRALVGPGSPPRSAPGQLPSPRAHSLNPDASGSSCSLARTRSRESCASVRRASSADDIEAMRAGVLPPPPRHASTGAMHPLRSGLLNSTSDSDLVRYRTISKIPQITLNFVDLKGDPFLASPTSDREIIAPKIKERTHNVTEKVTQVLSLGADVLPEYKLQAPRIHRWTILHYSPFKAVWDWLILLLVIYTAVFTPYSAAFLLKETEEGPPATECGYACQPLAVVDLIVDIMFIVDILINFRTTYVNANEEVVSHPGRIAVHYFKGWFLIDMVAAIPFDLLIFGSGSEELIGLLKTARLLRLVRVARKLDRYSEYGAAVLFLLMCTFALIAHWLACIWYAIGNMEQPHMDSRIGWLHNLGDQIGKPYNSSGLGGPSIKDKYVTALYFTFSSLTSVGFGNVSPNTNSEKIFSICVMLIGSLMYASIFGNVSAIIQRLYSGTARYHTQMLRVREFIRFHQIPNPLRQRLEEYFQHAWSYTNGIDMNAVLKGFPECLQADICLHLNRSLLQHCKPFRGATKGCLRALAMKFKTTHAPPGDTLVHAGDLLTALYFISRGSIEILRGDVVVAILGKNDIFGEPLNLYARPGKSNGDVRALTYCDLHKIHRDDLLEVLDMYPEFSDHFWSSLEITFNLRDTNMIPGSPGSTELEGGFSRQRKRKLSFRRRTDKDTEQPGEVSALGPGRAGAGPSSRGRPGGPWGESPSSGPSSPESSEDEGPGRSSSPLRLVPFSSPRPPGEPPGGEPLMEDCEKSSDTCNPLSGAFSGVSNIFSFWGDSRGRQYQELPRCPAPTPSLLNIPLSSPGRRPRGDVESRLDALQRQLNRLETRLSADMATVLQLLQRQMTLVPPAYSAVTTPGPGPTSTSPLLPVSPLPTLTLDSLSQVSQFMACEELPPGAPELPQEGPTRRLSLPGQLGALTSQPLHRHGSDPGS

Take `CN1CN(CC2CCC2)Cc2c(O)ccc3c2c(cn3-c2ccc(Br)cc2)C1=O`: the MIC in [1] worked out at 8 µg/mL.

Turning to `Oc1ccc2c3c(cn2-c2ccc(Br)cc2)CCN(C2CCC2)Cc13`, the minimal inhibitory concentration (MIC) in [1] was found to be 16 µg/mL.

Turning to `CN1CN(C2CCCCC2)Cc2c(O)ccc3oc(-c4ccc(O)cc4)c(c23)C1=O`, in data set [1], the minimum inhibitory concentration (MIC) was 8 µg/mL.

`CC(=O)c1c(C)n(-c2ccc(Br)cc2)c2ccc(O)c(CN3CCCCC3)c12`: the minimum inhibitory concentration (MIC) in data set [1] worked out at 0.125 µg/mL.

Regarding `CC1c2c(O)ccc3c2c(cn3-c2ccc(Br)cc2)CCN1C1CCC1` (stereo unspecified), the minimal inhibitory concentration (MIC) in data set [1] was found to be 8 µg/mL.

With `CN1CN(CC2CCC2)Cc2c(O)ccc3oc(-c4ccccc4)c(c23)C1=O`, the MIC in [1] was determined as 0.5 µg/mL.

As for `CCOC(=O)c1c(NC(=O)c2c(F)c(F)c(F)c(F)c2F)sc2c1CCN(CC)C2`, the MIC in data set [2] was determined as 0.23 µM.

Turning to `COc1ccc2oc(-c3ccc(O)cc3)c3c2c1CN(CC1CCC1)CN(C)C3=O`, the minimum inhibitory concentration (MIC) in data set [1] stood at 64 µg/mL.

As to `O=C1NCN(C2CCCC2)Cc2c(O)ccc3oc(-c4ccc(O)cc4)c1c23`, in [1], the MIC was 0.5 µg/mL.

As to `CNC(=O)c1c(-c2ccc(O)cc2)oc2ccc(O)c(CN3CCCCC3)c12`, in [3], the melting temperature (Tm) worked out at 67.4 °C. Also, the shift in melting temperature (ΔTm) in data set [4] turned out to be 8.4 °C.

As for `CC(C)CN1Cc2c(O)ccc3oc(-c4ccc(O)cc4)c(c23)C(=O)N(C)C1`, the MIC in data set [1] was 0.062 µg/mL.

As for `COc1ccc(-c2oc3ccc(O)c4c3c2C(=O)N(C)CN(CC2CCC2)C4)cc1`, the minimum inhibitory concentration (MIC) in data set [1] amounted to 0.25 µg/mL.

`CC1c2c(O)ccc3c2c(cn3-c2ccc(Br)cc2)C(=O)CN1C1CCC1` (stereo unspecified): in data set [1], the MIC was determined as 64 µg/mL.

As for `CN1CN(CC2CCCCC2)Cc2c(O)ccc3oc(-c4ccc(O)cc4)c(c23)C1=O`, the minimal inhibitory concentration (MIC) in [1] is 16 µg/mL.

`CC1c2c(O)ccc3c2c(cn3-c2ccccc2)CCN1CC1CC1` (stereo unspecified): the minimal inhibitory concentration (MIC) in [1] worked out at 16 µg/mL.

Turning to `CN1CN(CC2CCC2)Cc2c(O)ccc3oc(-c4cccc(O)c4)c(c23)C1=O`, the MIC in [1] was 0.125 µg/mL.

As to `CN1CN(CC2CCCC2)Cc2c(O)ccc3oc(-c4ccc(O)cc4)c(c23)C1=O`, the MIC in [1] stood at 2 µg/mL.

`CN1CN(CC2CCC2)Cc2c(O)ccc3oc(-c4ccc(F)cc4)c(c23)C1=O`: the minimum inhibitory concentration (MIC) in data set [1] was 2 µg/mL.

Turning to `CC(C)CCN1Cc2c(O)ccc3oc(-c4ccc(O)cc4)c(c23)C(=O)N(C)C1`, the MIC in data set [1] came out at 0.25 µg/mL.

Take `Oc1ccc2c3c(cn2-c2ccc(Br)cc2)CCN(CC2CCC2)Cc13`: the MIC in data set [1] was 8 µg/mL. Besides, the half-life at 0.1 µM in data set [5] amounted to 51.5 min. In addition, the microsomal CLint at 0.1 µM in [6] came out at 26.9 µL/min/mg. Further, the remaining at 1 h, 0.1 µM in data set [7] was found to be 44.1%.

For the compound `CN1CN(CCC2CC2)Cc2c(O)ccc3oc(-c4ccc(O)cc4)c(c23)C1=O`, the minimal inhibitory concentration (MIC) in data set [1] was determined as 0.25 µg/mL.

Take `CC1c2c(O)ccc3c2c(cn3-c2ccc(Br)cc2)C(=O)CN1CC1CCC1` (stereo unspecified): in [1], the MIC was greater than 64 µg/mL.

Consider `COc1ccc(-c2oc3ccc(OC)c4c3c2C(=O)N(C)CN(CC2CCC2)C4)cc1`, for which the MIC in data set [1] stood at 64 µg/mL.

Consider `CC1c2c(O)ccc3c2c(cn3-c2ccccc2)CCN1CC1CCC1` (stereo unspecified), for which, in [1], the minimal inhibitory concentration (MIC) is 8 µg/mL.

In the case of `CC1c2c(O)ccc3c2c(cn3-c2ccc(Br)cc2)CCN1CC1CC1` (stereo unspecified), the minimum inhibitory concentration (MIC) in data set [1] is 8 µg/mL.

On to `CN1CN(C2CCC2)Cc2c(O)ccc3c2c(cn3-c2ccc(Br)cc2)C1=O`, for which the minimal inhibitory concentration (MIC) in [1] was determined as 8 µg/mL.

`CN1CN(C2CCCC2)Cc2c(O)ccc3c2c(cn3-c2ccc(Br)cc2)C1=O`: the MIC in [1] came out at 1 µg/mL.

On to `CN1CN(CC2CCCC2)Cc2c(O)ccc3c2c(cn3-c2ccc(Br)cc2)C1=O`, for which the minimum inhibitory concentration (MIC) in data set [1] was greater than 64 µg/mL.

With `CN1CN(CC2CC2)Cc2c(O)ccc3c2c(cn3-c2ccc(Br)cc2)C1=O`, the MIC in data set [1] was 8 µg/mL.

In the case of `CN1CN(CC2CCC2)Cc2c(O)ccc3oc(-c4ccc(O)cc4)c(c23)C1=O`, the minimum inhibitory concentration (MIC) in [1] stood at 0.016 µg/mL. Moreover, the midpoint of thermal melting (Tm) in data set [3] was found to be 65.8 °C. Moreover, the ΔTm in [4] is 6.8 °C. Moreover, the half-inhibitory concentration (IC50) in data set [8] is 2.1 µM; in data set [9], greater than 100 µM. The half-life at 0.1 µM in data set [5] was 17.7 min. Also, the microsomal CLint at 0.1 µM in data set [6] amounted to 78.2 µL/min/mg. The remaining at 1 h, 0.1 µM in data set [7] was 8.2%.

Turning to `O=c1oc2cc(O)ccc2c2oc3ccc(O)c(CN4CCCCC4)c3c12`, in [9], the midpoint of inhibition, the IC50, lay at 0.52 µM.

Turning to `C[C@]12CC[C@H]3[C@@H](CCC4=CC(=O)CC[C@@]43C)[C@@H]1CC[C@@H]2O` [TESTOSTERONE], the remaining at 1 h, 0.1 µM in data set [7] was 4.1%.

With `CC1c2c(O)ccc3c2c(cn3-c2ccc(Br)cc2)C(=O)CN1CC1CC1` (stereo unspecified), in data set [1], the MIC came to 32 µg/mL.

For `CN1CN(C2CCCC2)Cc2c(O)ccc3oc(-c4ccc(O)cc4)c(c23)C1=O`, the MIC in [1] worked out at 0.125 µg/mL. For the same compound, the melting temperature (Tm) in data set [3] was found to be 66 °C. The ΔTm in data set [4] turned out to be 7 °C. For the same compound, the IC50 was 5.87 µM in [8] and greater than 100 µM in data set [9]. Also, in data set [5], the half-life at 0.1 µM was 28.9 min. In addition, the microsomal CLint at 0.1 µM in data set [6] was determined as 48 µL/min/mg. Moreover, the remaining at 1 h, 0.1 µM in [7] turned out to be 23.3%.

Turning to `CN1CN(CCCC2CCCCC2)Cc2c(O)ccc3oc(-c4ccc(O)cc4)c(c23)C1=O`, the minimum inhibitory concentration (MIC) in data set [1] is greater than 64 µg/mL.

In the case of `COc1cccc(-c2oc3ccc(O)c4c3c2C(=O)N(C)CN(CC2CCC2)C4)c1`, the MIC in [1] stood at 4 µg/mL.

On to `CC1c2c(O)ccc3c2c(cn3-c2ccccc2)CCN1C1CCC1` (stereo unspecified), for which the MIC in data set [1] came out at 16 µg/mL.

As to `CN1CN(C2CCC2)Cc2c(O)ccc3oc(-c4ccc(O)cc4)c(c23)C1=O`, the minimum inhibitory concentration (MIC) in [1] stood at 0.125 µg/mL.

Take `CN1CN(CC2CC2)Cc2c(O)ccc3oc(-c4ccc(O)cc4)c(c23)C1=O`: the MIC in data set [1] was 0.031 µg/mL. In data set [9], this compound registered an IC50 greater than 100 µM.

Take `CC1c2c(O)ccc3c2c(cn3-c2ccc(Br)cc2)CCN1CC1CCC1` (stereo unspecified): the MIC in [1] came out at 8 µg/mL.

As to `Oc1ccc2c3c(cn2-c2ccc(Br)cc2)CCN(CC2CC2)Cc13`, the minimum inhibitory concentration (MIC) in data set [1] is 16 µg/mL.

Turning to `O=C(O)Cc1ccccc1Nc1c(Cl)cccc1Cl` [DICLOFENAC], in [6], the microsomal CLint at 0.1 µM came to 248 µL/min/mg.
